Here are results for 11 compounds from patent US11279702B2, “AMPK activators” (Kallyope, Inc., priority 2020, dated 2022).

Structures are written as SMILES. pEC50: −log10 of the molar value.

The target in one data set is BCRP (Homo sapiens (Human), UniProt Q9UNQ0). Nature of the data set: in vitro. Format: in vitro ADME. The protocol:
Caco-2 cells purchased from ATCC were seeded onto […] (PET) in 96-well BD Insert plates at 1×10^5 cells/cm^2, and refreshed medium every 4-5 days until to the 21st to 28th day for confluent cell monolayer formation. The transport buffer in the study was HBSS with 10 mM HEPES at pH 7.40±0.05. Compounds were tested at 2 μM in the presence or absence of 30 μM novobiocin bi-directionally in duplicate. E3S was tested at 5 μM in the presence or absence of 30 μM novobiocin bi-directionally in duplicate, while nadolol and metoprolol were tested at 2 μM in the absence of novobiocin in A to B direction in duplicate. Final DMSO concentration was adjusted to less than 1%. The plate was incubated for 2 hours in CO2 incubator at 37+1° C., with 5% CO2 at saturated humidity without shaking. All samples were mixed with acetonitrile containing internal standard and were centrifuged at 4000 rpm for 10 min. Subsequently, 100 μL supernatant solution was diluted with 100 μL distilled water for LC/MS/MS analysis. Concentrations of test and control compounds in starting solution, donor solution, and receiver solution were quantified by LC/MS/MS, using peak area ratio of analyte/internal standard.

The target of data set [1] is Recombinant AMPK α1/β1/γ1 complex (Homo sapiens (Human), UniProt Q13131+Q9Y478). Description: In vitro pAMPK1 kinase activation assay (ADP-Glo, SAMS peptide). The format is biochemical. The settings on record: for pEC50: AMPK α1/β1/γ1 pre-activated with CAMKK2, 12-point curve; for activation at 10 µM: relative to reference compound MK-8722. On the procedure: Compound effect on AMPK enzyme activation was determined in a cell-free format with a 12-point concentration curve. The ADP-Glo detection system was used to determine phosphorylation of a SAMS peptide substrate. Recombinant AMPK α1/β1/γ1 complex was pre-activated by phosphorylation with CAMKK2 followed by incubated with compound for 15 minutes prior to the SAMS phosphorylation reaction. Activity curves and EC50 values were fitted by interpolation to an ATP:ADP standard curve as indicated by the ADP-Glo manufacturer using Prism software. Activity at 10 μM is reported relative to a reference compound, MK-8722 (Science 2017, 357(6350):507-511).
Sequence of Recombinant AMPK α1/β1/γ1 complex (Q13131 whole entry): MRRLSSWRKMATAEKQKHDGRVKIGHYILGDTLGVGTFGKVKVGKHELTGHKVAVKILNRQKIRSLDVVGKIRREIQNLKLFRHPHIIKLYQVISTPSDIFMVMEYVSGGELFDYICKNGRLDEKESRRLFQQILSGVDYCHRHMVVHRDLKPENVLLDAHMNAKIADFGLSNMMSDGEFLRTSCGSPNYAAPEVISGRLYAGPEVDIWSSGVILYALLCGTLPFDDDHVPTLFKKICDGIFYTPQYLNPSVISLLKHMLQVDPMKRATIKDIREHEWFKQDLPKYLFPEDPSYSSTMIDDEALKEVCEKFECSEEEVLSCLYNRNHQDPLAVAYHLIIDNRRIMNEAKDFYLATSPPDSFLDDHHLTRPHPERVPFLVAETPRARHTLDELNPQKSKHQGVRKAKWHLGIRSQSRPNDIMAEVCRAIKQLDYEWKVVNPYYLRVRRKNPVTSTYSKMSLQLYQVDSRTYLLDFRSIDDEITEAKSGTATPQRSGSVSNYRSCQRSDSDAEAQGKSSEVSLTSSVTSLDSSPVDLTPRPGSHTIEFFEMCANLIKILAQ
Sequence of Recombinant AMPK α1/β1/γ1 complex (Q9Y478 whole entry): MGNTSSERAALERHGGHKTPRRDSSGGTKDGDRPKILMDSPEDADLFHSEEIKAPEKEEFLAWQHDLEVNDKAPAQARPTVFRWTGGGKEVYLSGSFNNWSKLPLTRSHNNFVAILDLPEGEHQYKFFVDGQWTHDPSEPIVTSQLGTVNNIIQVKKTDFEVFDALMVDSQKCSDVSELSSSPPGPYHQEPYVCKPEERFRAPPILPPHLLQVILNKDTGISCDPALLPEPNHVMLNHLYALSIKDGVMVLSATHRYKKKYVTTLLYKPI
Sequence of Recombinant AMPK α1/β1/γ1 complex (P54619 whole entry partner): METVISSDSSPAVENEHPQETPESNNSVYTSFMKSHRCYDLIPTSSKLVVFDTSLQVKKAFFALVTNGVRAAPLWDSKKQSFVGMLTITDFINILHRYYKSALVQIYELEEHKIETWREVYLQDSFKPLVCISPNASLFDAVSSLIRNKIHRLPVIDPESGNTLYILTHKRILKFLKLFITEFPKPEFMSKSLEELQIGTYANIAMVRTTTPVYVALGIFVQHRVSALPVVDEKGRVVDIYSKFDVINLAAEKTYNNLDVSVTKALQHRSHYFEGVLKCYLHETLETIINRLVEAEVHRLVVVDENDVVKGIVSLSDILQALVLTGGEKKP
In general terms: In ADP-Glo the light output rises with the ADP produced.

For data set [2], the system named is Acetyl CoA Carboxylase (ACC) Phosphorylation in Mouse Muscle. Nature of the data set: Level of ACC phosphorylation in mouse muscle. The format is in vivo, C57BL/6J mice. On the procedure: Systemic AMPK target engagement in vivo can be assessed by measuring the site-specific phosphorylation of a direct AMPK substrate, acetyl-coenzyme A carboxylase (ACC), in a well perfused tissue such as muscle.
Compounds were formulated in vehicle (0.25% methyl cellulose, 5% Tween 80, 0.02% sodium dodecyl sulfate (SDS) in Hanks' Buffered Salt Solution with Ca^2+ and Mg^2+). Male C57BL/6J mice were administered vehicle or compound once daily for 5 days. On the final day of dosing (day 1 for acute assessment, day 5 for sub-chronic assessment), mice were euthanized by cervical dislocation five hours post dose and samples of skeletal muscle (gastrocnemius) were removed and snap frozen in liquid nitrogen.
Frozen muscle tissues were homogenized. Homogenates were analyzed for protein concentration and equal amounts of protein were assayed for total and phosphorylated ACC (p-ACC) levels using Meso Scale Discovery's Multi-array assay kit. The ratio of p-ACC/total ACC was determined for each sample.

Data set [3] deals with Mouse In Vivo Chemotherapy-Induced Intestinal Injury Model. Description: Diarrhea in chemotherapy (5FU)-induced intestinal injury model. Also on record: species or system BALB/c mice. The settings on record: 30 mg/kg BID. On the procedure: Compounds were formulated in vehicle (0.25% methyl cellulose, 5% Tween 80, 0.02% sodium dodecyl sulfate (SDS) in Hanks' Buffered Salt Solution with Ca2+ and Mg2+). On day 1, either saline or a 400 mg/kg dose of 5-fluorouracil (5FU) in saline was administered by intraperitoneal injection to BALB/c mice. Starting on day 2, vehicle or compound was administered once or twice a day by oral gavage. In some instances, compound was also administered once or twice a day by oral gavage from day −3 to day −1 (pre-5FU). From days 5 to 6 post-5FU, the animals were scored for diarrhea severity once a day. The diarrhea was scored 0-3 as follows: 0—normal consistency (black and solid), 1—soft (black and a bit lighter/yellow), 2—loosely shaped stool (yellowish and somewhat watery), 3—extreme diarrhea (very watery). Day 5 and day 6 diarrhea scores following administration of certain compounds were lower than vehicle control mice. […] In addition, Compound 1 was efficacious at doses as low as 3 mg/kg BID (6 mg/kg total daily dose).

Data set [4] can be described thus: Pharmacokinetics (oral bioavailability, IV parameters). The settings on record: mouse, in vivo; C57BL/6 mice, IV 1 mg/kg, PO 30 mg/kg. On the procedure: Compounds were tested for pharmacokinetics in C57BL/6 mice. Compounds 2, 4, and A1 were dosed IV at 1 mg/kg as a formulation of 0.5 mg/mL in 5% DMSO+30% PEG400+65% water and PO at 30 mg/kg as a formulation of 6 mg/mL in 0.25% MC+5% Tween 80+0.02% SDS. Compound 1 was dosed IV at 1 mg/kg as a formulation of 0.50 mg/mL in 5% DMSO+30% PEG400+65% water and PO at 30 mg/kg as a formulation of 6 mg/mL in 0.5% MC+0.5% Tween 80.

The Papp A→B is how fast a substance crosses the layer from the apical side. Usually pEC50 stands for −log10 of the EC50, conventionally taken in molar units. As a reminder, the bioavailability is the share of a dose that reaches the circulation, judged against a reference dose that is usually intravenous. Low readings indicate little systemic uptake, high ones much systemic uptake.

Sequence of BCRP (Q9UNQ0 whole entry): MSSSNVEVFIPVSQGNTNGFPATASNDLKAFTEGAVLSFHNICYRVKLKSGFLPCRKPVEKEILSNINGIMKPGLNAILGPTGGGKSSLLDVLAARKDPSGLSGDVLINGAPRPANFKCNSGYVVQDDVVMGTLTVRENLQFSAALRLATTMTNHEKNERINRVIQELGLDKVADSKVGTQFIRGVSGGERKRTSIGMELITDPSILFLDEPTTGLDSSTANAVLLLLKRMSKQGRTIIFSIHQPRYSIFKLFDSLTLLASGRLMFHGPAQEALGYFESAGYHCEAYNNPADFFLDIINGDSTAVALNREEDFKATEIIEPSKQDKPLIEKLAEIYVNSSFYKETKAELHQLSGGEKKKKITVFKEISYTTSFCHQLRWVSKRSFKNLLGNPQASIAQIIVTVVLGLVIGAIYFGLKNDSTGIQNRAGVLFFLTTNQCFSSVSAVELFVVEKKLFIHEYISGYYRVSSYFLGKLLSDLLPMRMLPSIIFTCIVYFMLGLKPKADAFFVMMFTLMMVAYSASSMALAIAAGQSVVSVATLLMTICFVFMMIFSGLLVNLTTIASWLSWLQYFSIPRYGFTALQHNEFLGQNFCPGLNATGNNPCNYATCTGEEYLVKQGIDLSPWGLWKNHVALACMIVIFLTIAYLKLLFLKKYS

As to `COCCc1ccc(OCC(O)CNC(C)C)cc1` (stereo not drawn) [metoprolol, reference compound], the Papp A→B at 2 h, 2 μM at BCRP (human, Caco-2, pH 7.4, Mean Papp (10^−6 cm/s) A to B) worked out at 14.7 ×10⁻⁶ cm/s. The compound also gave a recovery at 2 h, 2 μM on BCRP (human, Caco-2, pH 7.4, Mean Recovery (%) A to B) of 95.4%.
Consider `CCOP(=O)(O)CSc1nc2nc(-c3ccc(-c4ccccc4O)cc3)c(Cl)cc2[nH]1` [Compound 3, ethyl hydrogen (((6-chloro-5-(2′-hydroxy-[1,1′-biphenyl]-4-yl)-1H-imidazo[4,5-b]pyridin-2-yl)thio)methyl)phosphonate], for which, in data set [1], the pEC50 was 8.62 and the activation at 10 µM was 49%.
Take `O[C@@H]1CO[C@H]2[C@@H]1OC[C@H]2Oc1nc2cc(Cl)c(-c3ccc(-c4ccccc4)cc3)cc2[nH]1` [MK-8722, reference compound]: in data set [2] (30 mg/kg once daily for 5 days, five hours post dose, gastrocnemius), the “% p-ACC/ACC ratio change vs. Vehicle, Sub-chronic (5 days)” value is listed as 259.0%. Further, the “% p-ACC/ACC ratio change vs. Vehicle, Acute (5 hr)” value in data set [2] (30 mg/kg, day 1, five hours post dose, gastrocnemius) is recorded as 275.7%. Also, the “ratio of pACC/total ACC compared with vehicle control mice” value in data set [2] (30 mg/kg, one-way ANOVA vs vehicle (Dunnett's post-test)) is on record as “significantly higher”.
On to `C[C@]12CC[C@@H]3c4ccc(OS(=O)(=O)O)cc4CC[C@H]3[C@@H]1CCC2=O` [Compound E3S, reference compound], for which, at BCRP (Caco-2), the “Efflux Ratio” value was 36.79, the “Mean Recovery (%) A to B” value is 76.60% and the “Mean Recovery (%) B to A” value is recorded as 98.34%.
`CC(C)(C)NCC(O)COc1cccc2c1CC(O)C(O)C2` (stereo not drawn) [nadolol, reference compound]: at BCRP (Caco-2), the “Mean Papp (10^−6 cm/s) A to B” value is given as 0.11 10^−6 cm/s and the “Mean Recovery (%) A to B” value is recorded as 99.73%.
As to `O=P(O)(O)CSc1nc2nc(-c3ccc(-c4ccccc4O)cc3)c(Cl)cc2[nH]1` [Compound 4, (((6-chloro-5-(2′-hydroxy-[1,1′-biphenyl]-4-yl)-1H-imidazo[4,5-b]pyridin-2-yl)thio)methyl)phosphonic Acid], the “Diarrhea Score % Change vs. Vehicle” value in data set [3] (Day 5) is recorded as −58%; in data set [3] (Day 6), −65%. For the same compound, the “Diarrhea Score” value turned out to be 0.37 in data set [3] (Day 5, score 0-3) and 0.63 in data set [3] (Day 6, score 0-3). The pEC50 in data set [1] is 9.26. In addition, the activation at 10 µM in data set [1] is 28%. The bioavailability in data set [4] was below 1%.
Regarding `CC(C)(C)CCc1ccc(-c2ccc(-c3nc4nc(SCC(=O)O)[nH]c4cc3Cl)cc2)c(O)c1` [Compound 6, 2-((6-chloro-5-(4′-(3,3-dimethylbutyl)-2′-hydroxy-[1,1′-biphenyl]-4-yl)-1H-imidazo[4,5-b]pyridin-2-yl)thio)acetic Acid], in data set [1], the pEC50 was 5.95 and the activation at 10 µM is 18%.
Turning to `O=C(O)CSc1nc2nc(-c3ccc(N4CC[C@H](O)C4)cc3)c(Cl)cc2[nH]1` [Compound 7, (S)-2-((6-chloro-5-(4-(3-hydroxypyrrolidin-1-yl)phenyl)-1H-imidazo[4,5-b]pyridin-2-yl)thio)acetic Acid], in data set [1], the pEC50 was 7.37 and the activation at 10 µM was determined as 42%.
Consider `CP(=O)(O)CSc1nc2nc(-c3ccc(-c4ccccc4O)cc3)c(Cl)cc2[nH]1` [Compound 2, (((6-chloro-5-(2′-hydroxy-[1,1′-biphenyl]-4-yl)-1H-imidazo[4,5-b]pyridin-2-yl)thio)methyl)(methyl)phosphinic Acid], for which, in data set [1], the pEC50 was 9.01 and the activation at 10 µM came to 47%. Also, the bioavailability in data set [4] was below 1%.
For `O=C(O)CSc1nc2nc(-c3ccc(-c4ccc(-n5cncn5)cc4)cc3)c(Cl)cc2[nH]1` [Compound 8, 2-((5-(4′-(1H-1,2,4-triazol-1-yl)-[1,1′-biphenyl]-4-yl)-6-chloro-1H-imidazo[4,5-b]pyridin-2-yl)thio)acetic Acid], in data set [1], the pEC50 is 7.70 and the activation at 10 µM is 39%.
The like results for `O=C(O)CSc1nc2nc(-c3ccc(-c4ccc(-n5cncn5)cc4O)cc3)c(Cl)cc2[nH]1` [Compound 9, 2-((6-chloro-5-(2′-hydroxy-4′-(1H-1,2,4-triazol-1-yl)-[1,1′-biphenyl]-4-yl)-1H-imidazo[4,5-b]pyridin-2-yl)thio)acetic Acid] were, in that order, 8.96 and 51%.
